# Entries after “also recorded” stand apart in the source; their conditions may differ. Like-named read-outs stand apart in the source and are kept apart here. Where a SMILES comes first, the peptide text is derived from it. Bridges are numbered along the chain shown (N, C = ends).
# Columns and labels:
# Nav1.5 [1] = assay type: cell-based; details: 50 ms depolarisation to −30 mV, holding potential −100 mV, room temperature (22°C–25°C), mean ± SEM
# Experimental: (§1) Sodium currents in experimental cells were recorded at room temperature (22°C–25°C) using an EPC-10 patch-clamp amplifier (HEKA, Germany) in a whole-cell patch-clamp configuration. Recording pipettes were made from borosilicate glass capillaries (VWR, United States) using a PC-10 puller (Narishige, Japan). The inner solution (mM): KCl 130, NaCl 15, CaCl2 0.37, MgCl2 1 EGTA 1, HEPES 10, pH 7.2, resistance was measured as 1.8 MO. The outer solution was composed of (mM): NaCl 140, KCl 3, MgCl2 1, CaCl2 1, HEPES 10, pH 7.2. To minimize voltage errors, the series resistance compensation was set to 80%. The P/4 protocol was used to subtract the linear capacitance and leakage current. Experimental data were acquired and analyzed using the pulse fit 8.0 program (HEKA, Germany). The needed concentrations of toxin dissolved in external solution were applied to the cell surface by microinjector.
# To determine the biological activity of synthetic and natural JZTX-14 on Nav1.5, we observed their effects on HEK293T cells heterologously expressing Nav1.5 using a whole-cell voltage-clamp configuration. The current traces were induced by a 50 ms depolarisation potential of −30 mV at a holding potential of −100 mV. Currents were recorded by adding 0.1 μM and 0.5 μM of JZTX-14 to the solution.
# [2] = target: T1, MDA-MB-231 sodium channels (Homo sapiens, UniProt Q14524); experiment: Whole-cell patch clamp, sodium currents in MDA-MB-231 cells; assay type: cell-based
# T1 construct: host or cells: MDA-MB-231
# Experimental: as §1
# The biological activity of synthetic JZTX-14 in MDA-MB-231 cells was recorded using the whole-cell patch-clamp method. MDA-MB-231 sodium channels are sensitive to JZTX-14. […] The inward sodium current was induced by a 50 ms depolarisation potential of −30 mV at a holding potential of −100 mV (Figure 3A). The inhibition by JZTX-14 was concentration-dependent (Figure 3B). […] Next, we determined the effects of JZTX-14 on the current-voltage (I–V) curves of sodium channels resulting from a series of currents induced by a set of depolarising potentials ranging from −100 to +60 mV when cells were held at −100 mV (Figure 3C). […] We also investigated the effect of JZTX-14 on the steady-state inactivation of sodium channels in MDA-MB-231 cells. […] shifted the inactivation curves for sodium channels by approximately 10 mV (Figure 3D).
# MDA-MB-231 cells [3] = experiment: CCK-8 cell proliferation assay; assay type: cell-based, human
# MDA-MB-231 cells [4] = experiment: Hoechst 33342/PI double staining assay; assay type: cell-based, human; details: 0, 6, 12.5 μM; 48 h
# Experimental: The cells were seeded in a 6-well plate, and after their adherence to the plate, the medium was changed with a complete medium containing different concentrations of inhibitors. After 48 h of treatment, the cells were washed three times with 4°C cold PBS, and incubated with 5 μl/ml Hoechst 33,342 for 15 min. The cells were washed again three times using PBS and incubated with 5 μl/ml PI for 15 min.
# MDA-MB-231 cells [5] = experiment: Scratch wound assay (cell migration); assay type: cell-based, human; details: 12.5 μM, DMEM/F12 containing 0.2% BSA
# Experimental: The MDA-MB-231 cells were seeded into a six-well plate at an appropriate density to form a single layer of cells. After 12 h, a sterile 200 μl pipette tip was used to produce a linear scraping wound, which was cultured with DMEM/F12 containing 0.2% BSA and different concentrations of inhibitors. The cells were imaged at 0 h, 24 h and 48 h, after scratch induction. ImageJ software was used to analyze the images and quantify cell migration.
# MDA-MB-231 cells [6] = experiment: RNA sequencing, differentially expressed genes; assay type: cell-based, human; details: 12.5 μM, 48 h
# Experimental: Total RNA was extracted from untreated (C) MDA-MB-231 cells and MDA-MB-231 cells treated with a concentration of 12.5 μM JZTX-14 (GL) for 48 h using TRIzol reagent. RNA concentration was first quantified using a NanoDrop 2000 spectrophotometer and further accurately quantified using an Agilent 2100/4200 for RNA sample mass and concentration. The extracted total RNA was stored at −70°C. The sample mRNA was enriched with magnetic beads with Oligo (dT), and then the mRNA was broken into short fragments which subsequently used as a template to synthesize the first strand of cDNA with six-base random primers. The second cDNA strand was synthesized by adding buffer, dNTPs, and enzymes, and the acquired double-stranded cDNA was purified, end-repaired, A-tailed, and connected to sequencing junctions. Next, the fragment size was selected and the cDNA library was enriched by PCR amplification, followed by accurate qualification of the effective concentration of the library using qPCR. […]
# The reads after rRNA removal were compared with the reference genome using Hisat2 software. Gene level quantification was performed separately for each sample using FeatureCount and combined to obtain the gene expression matrix of all samples. Correlation coefficients between samples were calculated based on the expression values (FPKM) of genes in each sample. […]
# MDA-MB-231 cells [7] = experiment: Quantitative real-time PCR validation of migration and invasion-related genes; assay type: cell-based, human; details: JZTX-14-treated MDA-MB-231 cells
# Nav1.5 [8] = details: HEK293 cells heterologously expressing Nav1.5; ref Zhang et al., 2018; cited from earlier work
smiles,measurement,setting,value
"CC[C@H](C)[C@H](NC(=O)[C@@H]1CSSC[C@@H]2NC(=O)[C@@H]3CCCN3C(=O)[C@@H]3CCCN3C(=O)[C@H](CCC(N)=O)NC(=O)CNC(=O)[C@@H]3CCCN3C(=O)[C@H](Cc3c[nH]cn3)NC(=O)[C@@H]3CSSC[C@H](NC(=O)[C@H](C)NC(=O)[C@H](CC(C)C)NC(=O)CNC(=O)[C@H](CO)NC(=O)[C@H](CSSC[C@H](NC(=O)CN)C(=O)N[C@@H](CCC(N)=O)C(=O)N[C@@H](CCCCN)C(=O)N[C@@H](Cc4ccccc4)C(=O)N[C@@H](Cc4ccccc4)C(=O)N[C@@H](Cc4c[nH]c5ccccc45)C(=O)N[C@@H]([C@@H](C)O)C(=O)N3)NC2=O)C(=O)N[C@@H]([C@@H](C)O)C(=O)N[C@@H](Cc2c[nH]c3ccccc23)C(=O)N2CCC[C@H]2C(=O)N[C@@H]([C@@H](C)O)C(=O)N[C@@H](CCC(=O)O)C(=O)N[C@@H]([C@@H](C)CC)C(=O)N1)C(=O)N[C@@H](CC(C)C)C(N)=O [JZTX-14] (H-GCQKFFWTCHPGQPPCCSGLACTWPTEICIL-NH2; disulfide 2-17, 9-22, 16-29)",Inhibition of Nav1.5 current,"Nav1.5 [1]; 0.1 μM, listed as Synthetic JZTX-14, 0.1 µM",30.3% ± 2.5%
same,Inhibition of Nav1.5 current,"Nav1.5 [1]; 0.5 μM, listed as Synthetic JZTX-14, 0.5 µM",53.4% ± 2.5%
same,Inhibition of inward sodium currents (in words),"[2]; 500 nM and 1 μM, 50 ms depolarisation to −30 mV, holding potential −100 mV",inhibited the inward sodium currents
same,Shift of steady-state inactivation curves of sodium channels,"[2]; 1 μM (Figure 3D), 6 cells per point, direction not given",approximately 10 mV
same,Shift of activation thresholds of sodium channels,"[2]; 1 μM, in the depolarising direction, I–V curves from −100 to +60 mV, holding potential −100 mV",approximately 10 mV
same,IC50,"[2]; Hill equation fit, 50 ms depolarisation to −30 mV, holding potential −100 mV, synthetic JZTX-14, 6 cells per point, read-out: IC50, inhibition of sodium current",401 nM
same,Cell survival rate (CCK-8),"MDA-MB-231 cells [3]; 1.5, 3, 6, 12.5, 25, 50, and 100 μM, 24 h, OD 450 nm",did not affect the survival rate
same,Cell survival rate (CCK-8),"MDA-MB-231 cells [3]; 25, 50, and 100 μM, 48 h, not statistically different compared to the control group",slightly reduced the survival rate
same,Apoptosis and necrosis (Hoechst 33342/PI staining),MDA-MB-231 cells [4],no apoptosis and necrosis; also recorded: no significant effect on the necrosis
same,Inhibition of migration (scratch assay),MDA-MB-231 cells [5]; 24 h,72%
same,Inhibition of migration (scratch assay),MDA-MB-231 cells [5]; 48 h,80%
same,Downregulated genes associated with migration and invasion,MDA-MB-231 cells [6],"ANGPTL4, S100A4, GJB3, FBXO2, PLAC1, and HMGN5"
same,Upregulated genes associated with migration and invasion,MDA-MB-231 cells [6],IL-24-F and SERPINB2
same,ANGPTL4 expression (qPCR),MDA-MB-231 cells [7],downregulated
same,FBXO2 expression (qPCR),MDA-MB-231 cells [7],downregulated
same,GJB3 expression (qPCR),MDA-MB-231 cells [7],downregulated
same,HMGN5 expression (qPCR),MDA-MB-231 cells [7],downregulated
same,IL-24-F expression (qPCR),MDA-MB-231 cells [7],upregulated
same,PLAC1 expression (qPCR),MDA-MB-231 cells [7],downregulated
same,S100A4 expression (qPCR),MDA-MB-231 cells [7],downregulated
same,SERPINB2 expression (qPCR),MDA-MB-231 cells [7],upregulated
same,Inhibition of Nav1.5 function,Nav1.5 [8],effectively inhibits

# — publication PMC10076671, “Spider venom-derived peptide JZTX-14 prevents migration and invasion of breast cancer cells via inhibition of sodium channels” (Frontiers in Pharmacology, 2023)
